How the values were obtained:
[1] = Antihemolytic potency against hypotonic lysis-induced erythrocytes (unknown origin) assessed as stabilization; type: functional, Erythrocyte
[2] = Molar volume, Vm of the compound at zero temperature; type: physicochemical
[3] = Inhibition of mouse brain synaptosomal Lysophosphatidylcholine acyltransferase using substrate [32P]lysophosphatidylcholine and oleoyl-CoA

SMILES	pAH50 [1]	Vm [2]	pKi [3]
CCCCCc1cc(O)c(C/C=C(\C)CCC=C(C)C)c(O)c1 [CANNABIGEROL]	4.66	2.861 ×10⁻⁴ m3/mol	3.59
Oc1ccc(Cl)cc1 [PARACHLOROPHENOL]	3.13	8.975 ×10⁻⁵ m3/mol	2.74
CC1=C(/C=C/C(C)=C/C=C/C(C)=C/CO)C(C)(C)CCC1 [RETINOL]	5.49	2.865 ×10⁻⁴ m3/mol	3.82
CCCCCc1cc(O)c2c(c1)OC(C)(C)c1ccc(C)cc1-2 [CANNABINOL]	4.4	2.601 ×10⁻⁴ m3/mol	3.26
CCCCCc1cc(O)c2c(c1)OC(C)(C)[C@@H]1CCC(CO)=C[C@@H]21	3.72	2.746 ×10⁻⁴ m3/mol	4.07
Oc1ccccc1Cl [2-CHLOROPHENOL]	2.94	8.975 ×10⁻⁵ m3/mol	2.48
CCCCCCCCCO [NONANOL]	4.39		3.24
CCCCCc1cc(O)c2c(c1)OC(C)(C)[C@@H]1CC=C(C)C[C@@H]21 [DELTA-8-TETRAHYDROCANNABINOL]	3.85	2.687 ×10⁻⁴ m3/mol	4.24
CCCCCCc1cc(O)c2c(c1)OC(C)(C)C1=C2CC(C)CC1 (centres undefined)	4.03	2.828 ×10⁻⁴ m3/mol	3.6
CCCCCc1cc(O)c2c(c1)OC(C)(C)[C@@H]1CCC(C)=C[C@@H]21 [DRONABINOL]	4.1	2.687 ×10⁻⁴ m3/mol	6.52
CCCCCCCCCCO [DECANOL]	5	1.576 ×10⁻⁴ m3/mol	3.77
CC(C)[C@]12CC(=O)[C@H](C)[C@H]1C2	3	1.132 ×10⁻⁴ m3/mol	3.15
CN(C)CCCN1c2ccccc2Sc2ccc(Cl)cc21 [CHLORPROMAZINE]	5.09	2.406 ×10⁻⁴ m3/mol	3.1
CCCCCCCCCCCCO [DODECANOL]	5.27	1.858 ×10⁻⁴ m3/mol	3.39
CCCCCCCCO [OCTANOL]	3.63	1.295 ×10⁻⁴ m3/mol	2.77
